Values of other authors in PMC12144996 (Acta Pharmaceutica Sinica. B, 2025).

Test system: SARS-CoV-2 variants of concern (VOCs)
Conditions: cited from earlier work

For CC(C)C(=O)OC[C@H]1O[C@@](C#N)(c2ccc3c(N)ncnn23)[C@H](O)[C@@H]1O [ATV006], the “Antiviral activity against SARS-CoV-2 variants of concern” value is given as “potent antiviral activity”.
